Experimental data as given in patent US8110588B2, “1,2,3-triazole derivatives useful as modulators of nicotinic acetylcholine receptors” (Neurosearch A/S, priority 2007, dated 2012).

How the values were obtained:
[1] = target: T1, wild-type nAChR α7 receptors (Homo sapiens, UniProt P36544); test: Positive modulation of acetylcholine-induced currents, two-electrode voltage clamp in Xenopus oocytes; assay type: cell-based; details: for maximal modulation of the acetylcholine (control) response (Imax) / EC50: 100 μM acetylcholine, nAChR α7 expressed in Xenopus laevis oocytes; for maximal modulation of the acetylcholine (control) response (Imax): (test-control)/control×100%; for EC50: clamped at −60 mV, compound 0.01-31.6 μM, read-out: EC50 for positive modulation of acetylcholine responses; for effect on acetylcholine-induced current amplitude: 0.01-31.6 μM compound applied 30 s before and during 100 μM acetylcholine application
T1 construct: expressed in transfected cells; host or cells: Xenopus laevis oocytes
Method: In this example the positive modulation of wild-type nAChR α7 receptors by Compound 1 (FIGS. 1A and 1B) and Compound 3 (FIGS. 2A and 2B) was determined using nAChR α7 receptors heterologously expressed in Xenopus laevis oocytes.
The electrical current through the nAChR α7 channel was measured using conventional two-electrode voltage clamp and nAChR α7 currents were activated by applying pulses of agonist-containing solution onto the nAChR α7 expressing oocyte. In brief, the oocytes were placed in a recording chambers and continuously superfused with an Oocyte Ringer (OR) solution containing 90 mM NaCl, 2.5 mM KCl, 2.5 mM CaCl2, 1 mM MgCl2 and 5 mM HEPES (pH adjusted to 7.4). The oocytes were clamped at −60 mV and currents were induced by applying 20 s pulses of 100 μM acetylcholine dissolved in OR. The intervals between the acetylcholine applications were 5 minutes, during which the oocytes were washed with OR. The first three applications were control applications to insure a constant response level of 100 μM acetylcholine.
The positive modulation in the presence of Compound 1 and Compound 3 was calculated as (test-control)/control×100% and the concentration response curve for this positive modulation was fitted to the sigmoidal logistic equation: I=Imax/(1+(EC50/[compound])^n), where Imax represents the maximal modulation of the control response, EC50 is the concentration causing a half maximal response, and n is the slope coefficient.

T1 sequence (P36544 23-502): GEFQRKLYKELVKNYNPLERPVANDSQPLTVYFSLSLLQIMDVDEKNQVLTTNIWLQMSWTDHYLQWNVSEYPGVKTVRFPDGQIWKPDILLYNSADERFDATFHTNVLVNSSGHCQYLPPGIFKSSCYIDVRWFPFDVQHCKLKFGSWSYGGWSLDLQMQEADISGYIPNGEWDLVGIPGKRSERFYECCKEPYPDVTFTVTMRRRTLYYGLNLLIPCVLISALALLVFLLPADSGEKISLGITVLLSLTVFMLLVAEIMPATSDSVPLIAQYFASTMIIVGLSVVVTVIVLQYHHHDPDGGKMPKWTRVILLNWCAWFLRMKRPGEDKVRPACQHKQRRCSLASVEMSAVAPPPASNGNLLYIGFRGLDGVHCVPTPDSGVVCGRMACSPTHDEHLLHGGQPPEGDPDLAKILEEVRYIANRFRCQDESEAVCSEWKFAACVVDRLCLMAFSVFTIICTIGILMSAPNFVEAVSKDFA

Structure (SMILES)	melting point	further results
COc1ccc(-c2nnn(-c3ccc(Cl)cc3Cl)c2N)cc1 [Compound 1, 3-(2,4-Dichloro-phenyl)-5-(4-methoxy-phenyl)-3H-[1,2,3]triazol-4-ylamine]	149.2 to 150.7 °C	maximal modulation of the acetylcholine (control) response (Imax) [1]: 561%; EC50 [1]: 4.9 µM; effect on acetylcholine-induced current amplitude [1]: robust increase
COc1ccc(Cl)cc1-c1nnn(-c2ccc(C(F)(F)F)cc2Cl)c1N [Compound 2, 5-(5-Chloro-2-methoxy-phenyl)-3-(2-chloro-4-trifluoromethyl-phenyl)-3H-[1,2,3]triazol-4-ylamine]	152.8 to 153.3 °C	–
COc1ccc(-c2nnn(-c3ccc(C(F)(F)F)cc3Cl)c2N)cc1 [Compound 3, 3-(2-Chloro-4-trifluoromethyl-phenyl)-5-(4-methoxy-phenyl)-3H-[1,2,3]triazol-4-ylamine]	130 to 130.7 °C	maximal modulation of the acetylcholine (control) response (Imax) [1]: 563%; EC50 [1]: 1.7 µM; effect on acetylcholine-induced current amplitude [1]: robust increase
COc1ccc(Cl)cc1-c1nnn(-c2ccc(Cl)cc2Cl)c1N [Compound 4, 5-(5-Chloro-2-methoxy-phenyl)-3-(2,4-dichloro-phenyl)-3H-[1,2,3]triazol-4-ylamine]	153.5 to 154.7 °C	–
COc1ccc(-c2nnn(-c3ccc(F)cc3Cl)c2N)cc1 [Compound 5, 3-(2-Chloro-4-fluoro-phenyl)-5-(4-methoxy-phenyl)-3H-[1,2,3]triazol-4-ylamine]	136.3 to 141.2 °C	–
COc1ccc(-n2nnc(-c3ccc(Cl)cc3Cl)c2N)cc1 [Compound 6, 5-(2,4-Dichloro-phenyl)-3-(4-methoxy-phenyl)-3H-[1,2,3]triazol-4-ylamine]	154.6 to 163.9 °C	–
COc1ccc(-c2nnn(-c3cc(C)on3)c2N)cc1 [Compound 7, 5-(4-Methoxy-phenyl)-3-(5-methyl-isoxazol-3-yl)-3H-[1,2,3]triazol-4-yl amine]	136.3 to 141.2 °C	–
Nc1c(-c2cc(Cl)ccc2O)nnn1-c1ccc(Cl)cc1Cl [Compound 8, 2-[5-Amino-1-(2,4-dichloro-phenyl)-1H-[1,2,3]triazol-4-yl]-4-chloro-phenol]	131.3 to 135.6 °C	–
Nc1c(-c2cc(Cl)ccc2O)nnn1-c1ccc(C(F)(F)F)cc1Cl [Compound 9, 2-[5-Amino-1-(2-chloro-4-trifluoromethyl-phenyl)-1H-[1,2,3]triazol-4-yl]-4-chloro-phenol]	74.5 to 77.5 °C	–
Nc1c(-c2ccc(-c3nnco3)cc2)nnn1-c1ccc(C(F)(F)F)cc1F [Compound 10, 3-(2-Fluoro-4-trifluoromethyl-phenyl)-5-(4-[1,3,4]oxadiazol-2-yl-phenyl)-3H-[1,2,3]triazol-4-ylamine]	184.6 to 186.1 °C	–
CC(=O)Nc1ccc(-c2nnn(-c3ccc(C(F)(F)F)cc3F)c2N)cc1 [Compound 11, N-{4-[5-Amino-1-(2-fluoro-4-trifluoromethyl-phenyl)-1H-[1,2,3]triazol-4-yl]-phenyl}-acetamide]	114.8 to 116.2 °C	–
Nc1ccc(-c2nnn(-c3ccc(C(F)(F)F)cc3F)c2N)cc1 [Compound 12, 5-(4-Amino-phenyl)-3-(2-fluoro-4-trifluoromethyl-phenyl)-3H-[1,2,3]triazol-4-ylamine]	163.6 to 165 °C	–
Nc1c(-c2ccc(C(F)(F)F)cc2F)nnn1-c1ccc(S(N)(=O)=O)cc1 [Compound 13, 4-[5-Amino-4-(2-fluoro-4-trifluoromethyl-phenyl)-[1,2,3]triazol-1-yl]-benzenesulfonamide]	183.8 to 185.2 °C	–
Nc1c(-c2ccc(O)cc2)nnn1-c1ccc(C(F)(F)F)cc1F [Compound 15, 4-[5-Amino-1-(2-fluoro-4-trifluoromethyl-phenyl)-1H-[1,2,3]triazol-4-yl]-phenol]	163.5 to 165.2 °C	–
COc1ccc(-n2nnc(-c3ccc(C(F)(F)F)cc3F)c2N)cc1 [Compound 16, 5-(2-Fluoro-4-trifluoromethyl-phenyl)-3-(4-methoxy-phenyl)-3H-[1,2,3]triazol-4-ylamine]	164.6 to 165.5 °C	–
Nc1c(-c2ccc(C(F)(F)F)cc2F)nnn1-c1ccc(O)cc1 [Compound 17, 4-[5-Amino-4-(2-fluoro-4-trifluoromethyl-phenyl)-[1,2,3]triazol-1-yl]-phenol]	176.2 to 177.5 °C	–
Nc1c(-c2ccc(Cl)cc2)nnn1-c1ccc(C(F)(F)F)cc1F [Compound 18, 5-(4-Chloro-phenyl)-3-(2-fluoro-4-trifluoromethyl-phenyl)-3H-[1,2,3]triazol-4-ylamine]	169.9 to 170.2 °C	–
Nc1c(-c2ccc(OC(F)(F)F)cc2)nnn1-c1ccc(C(F)(F)F)cc1F [Compound 19, 3-(2-Fluoro-4-trifluoromethyl-phenyl)-5-(4-trifluoromethoxy-phenyl)-3H-[1,2,3]triazol-4-ylamine]	134.2 to 134.9 °C	–
Nc1c(-c2ccc(O)cc2)nnn1-c1ccc(C(F)(F)F)cc1Cl [Compound 21, 4-[5-Amino-1-(2-chloro-4-trifluoromethyl-phenyl)-1H-[1,2,3]triazol-4-yl]-phenol]	161 to 162.3 °C	–
COc1ccc(-c2nnn(-c3c(Cl)cc(Cl)cc3I)c2N)cc1 [Compound 22, 3-(2,4-Dichloro-6-iodo-phenyl)-5-(4-methoxy-phenyl)-3H-[1,2,3]triazol-4-ylamine]	72.5 to 73.6 °C	–
COc1ccc(-n2nnc(-c3ccc(Cl)cc3C(F)(F)F)c2N)cc1 [Compound 23, 5-(4-Chloro-2-trifluoromethyl-phenyl)-3-(4-methoxy-phenyl)-3H-[1,2,3]triazol-4-ylamine]	159.2 to 160.2 °C	–
COc1ccc(-n2nnc(-c3ccc(F)cc3F)c2N)cc1 [Compound 24, 5-(2,4-Difluoro-phenyl)-3-(4-methoxy-phenyl)-3H-[1,2,3]triazol-4-ylamine]	152 to 156.5 °C	–
COc1ccc(-n2nnc(-c3ccc(F)cc3Cl)c2N)cc1 [Compound 25, 5-(2-Chloro-4-fluoro-phenyl)-3-(4-methoxy-phenyl)-3H-[1,2,3]triazol-4-ylamine]	175 to 176.8 °C	–
COc1ccc(-n2nnc(-c3ccc(Cl)c(Cl)c3)c2N)cc1 [Compound 26, 5-(3,4-Dichloro-phenyl)-3-(4-methoxy-phenyl)-3H-[1,2,3]triazol-4-ylamine]	189.9 to 191.3 °C	–
COc1ccc(-n2nnc(-c3ccc(Cl)cc3F)c2N)cc1 [Compound 27, 5-(4-Chloro-2-fluoro-phenyl)-3-(4-methoxy-phenyl)-3H-[1,2,3]triazol-4-ylamine]	147.9 to 149.5 °C	–
